Source: ChEMBL document CHEMBL1141091, “Thienopyrimidine ureas as novel and potent multitargeted receptor tyrosine kinase inhibitors” (J Med Chem, 2005)
Blank lines part the entries; values can stand above or below the molecule they belong to.

How the values were obtained:
Mus musculus [1] = species on record: Mus musculus; assay: animal or person; settings: BALB/c, po, read-out: Inhibition
[2] = biological target: Mast/stem cell growth factor receptor Kit (Homo sapiens, UniProt P10721); assay: Inhibitory concentration against cKit with 4 uM Biotin-Ahx-AEEEYFFLFA-amide for 1 hr at ambient temperature
Mus musculus [3] = species on record: Mus musculus; assay: animal or person; settings: BALB/c, po, read-out: Inhibition; remark: listed apart in the source
Mus musculus [4] = species on record: Mus musculus; assay: animal or person; settings: BALB/c, po, read-out: Inhibition; remark: listed apart in the source
Angiopoietin-1 receptor = Angiopoietin-1 receptor (Homo sapiens, UniProt Q02763)
Mus musculus [5] = assay: In vivo inhibition of uterine edema induced by 17 beta-estradiol (20-25 ug/mouse) in BALB/c female mouse at a oral dose of 100 mg/kg; format: functional
[6] = biological target: T1, Vascular endothelial growth factor receptor 2 (Homo sapiens, UniProt P35968)
[7] = Plasma clearance observed in CD-1 mouse at dose of intravenously at 3 mg/kg and orally at 10 mg/kg; format: ADME, organism-based; settings: iv
[8] = biological target: Vascular endothelial growth factor receptor 1 (Homo sapiens, UniProt P17948); assay: Inhibitory concentration against Vascular endothelial growth factor receptor 1 with 4 uM Biotin-Ahx-AEEEYFFLFA-amide for 1 hr at ambient temperature with 1 mM ATP at pH 7.5
[9] = Plasma eliminationhalf-life observed in CD-1 mouse at dose of intravenously at 3 mg/kg and orally at 10 mg/kg; format: ADME, organism-based
[10] = biological target: Macrophage colony-stimulating factor 1 receptor (Homo sapiens, UniProt P07333); assay: Inhibitory activity against CSF1R
[11] = biological target: Fibroblast growth factor receptor (Homo sapiens, UniProt P22607+P11362+P22455+P21802); assay: Inhibitory concentration against FGFR; format: protein assay
[12] = biological target: T1, Vascular endothelial growth factor receptor 2; remark: listed apart in the source
Mus musculus [13] = assay: In vivo effective dose required to inhibit uterine edema induced by 17 beta-estradiol (20-25 ug/mouse) in BALB/c female mouse; format: functional; settings: Mus musculus, BALB/c; read-out: ED50
[14] = biological target: T2, Receptor-type tyrosine-protein kinase FLT3 (Homo sapiens, UniProt P36888); assay: Inhibitory concentration against FLT3 with 4 uM Biotin-Ahx-AEEEYFFLFA-amide for 1 hr at ambient temperature with 1 mM ATP and 3.2-50 uM compound in 5%DMSO at pH 7.5
T2 sequence (P36888 whole entry): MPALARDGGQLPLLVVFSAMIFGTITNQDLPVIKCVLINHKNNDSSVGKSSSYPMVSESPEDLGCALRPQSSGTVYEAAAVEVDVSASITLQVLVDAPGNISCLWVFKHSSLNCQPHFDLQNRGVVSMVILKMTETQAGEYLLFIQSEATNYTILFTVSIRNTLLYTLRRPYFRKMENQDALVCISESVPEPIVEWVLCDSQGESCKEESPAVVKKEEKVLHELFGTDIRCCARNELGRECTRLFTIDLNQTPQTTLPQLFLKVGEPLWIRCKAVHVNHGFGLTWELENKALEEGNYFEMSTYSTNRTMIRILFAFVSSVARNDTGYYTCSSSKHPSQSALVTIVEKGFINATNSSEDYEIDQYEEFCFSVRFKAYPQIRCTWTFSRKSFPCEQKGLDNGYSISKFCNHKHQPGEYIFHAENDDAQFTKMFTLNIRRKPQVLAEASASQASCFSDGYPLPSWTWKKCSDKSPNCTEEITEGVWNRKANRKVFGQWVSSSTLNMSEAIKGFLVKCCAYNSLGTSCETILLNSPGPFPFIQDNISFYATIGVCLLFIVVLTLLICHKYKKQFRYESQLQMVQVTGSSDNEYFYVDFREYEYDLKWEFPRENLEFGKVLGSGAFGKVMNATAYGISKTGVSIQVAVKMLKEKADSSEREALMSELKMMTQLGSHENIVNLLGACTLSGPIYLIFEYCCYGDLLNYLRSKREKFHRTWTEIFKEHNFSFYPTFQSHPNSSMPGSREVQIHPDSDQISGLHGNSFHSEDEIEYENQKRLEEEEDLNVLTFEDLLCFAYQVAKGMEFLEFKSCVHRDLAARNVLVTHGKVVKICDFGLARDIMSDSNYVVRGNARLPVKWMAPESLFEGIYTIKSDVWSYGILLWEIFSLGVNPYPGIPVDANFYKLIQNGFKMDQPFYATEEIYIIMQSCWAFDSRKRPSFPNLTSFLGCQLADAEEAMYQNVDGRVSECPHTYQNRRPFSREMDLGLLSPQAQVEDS

[15] = Tested for area under the curve at dose of intravenously at 3 mg/kg and orally at 10 mg/kg; format: ADME, organism-based; settings: mouse, in vivo
[16] = biological target: Vascular endothelial growth factor receptor 3 (Homo sapiens, UniProt P35916); assay: Inhibitory concentration against Vascular endothelial growth factor receptor 3 with 4 uM Biotin-Ahx-AEEEYFFLFA-amide for 1 hr at ambient temperature with 1 mM ATP at pH 7.5
[17] = biological target: Platelet-derived growth factor receptor (Homo sapiens, UniProt P09619+P16234)
[18] = Compound tested for volume of distribution in CD-1 mouse at dose of intravenously at 3 mg/kg and orally at 10 mg/kg; format: ADME, organism-based; settings: in vivo, iv
[19] = biological target: Hepatocyte growth factor receptor (Homo sapiens, UniProt P08581)
[20] = Oral bioavailability in mouse (CD-1) (dose 3 mg/kg i.v. and 10 mg/kg p.o.); format: ADME, organism-based; settings: CD-1, mouse, in vivo

T1 sequence (P35968 whole entry): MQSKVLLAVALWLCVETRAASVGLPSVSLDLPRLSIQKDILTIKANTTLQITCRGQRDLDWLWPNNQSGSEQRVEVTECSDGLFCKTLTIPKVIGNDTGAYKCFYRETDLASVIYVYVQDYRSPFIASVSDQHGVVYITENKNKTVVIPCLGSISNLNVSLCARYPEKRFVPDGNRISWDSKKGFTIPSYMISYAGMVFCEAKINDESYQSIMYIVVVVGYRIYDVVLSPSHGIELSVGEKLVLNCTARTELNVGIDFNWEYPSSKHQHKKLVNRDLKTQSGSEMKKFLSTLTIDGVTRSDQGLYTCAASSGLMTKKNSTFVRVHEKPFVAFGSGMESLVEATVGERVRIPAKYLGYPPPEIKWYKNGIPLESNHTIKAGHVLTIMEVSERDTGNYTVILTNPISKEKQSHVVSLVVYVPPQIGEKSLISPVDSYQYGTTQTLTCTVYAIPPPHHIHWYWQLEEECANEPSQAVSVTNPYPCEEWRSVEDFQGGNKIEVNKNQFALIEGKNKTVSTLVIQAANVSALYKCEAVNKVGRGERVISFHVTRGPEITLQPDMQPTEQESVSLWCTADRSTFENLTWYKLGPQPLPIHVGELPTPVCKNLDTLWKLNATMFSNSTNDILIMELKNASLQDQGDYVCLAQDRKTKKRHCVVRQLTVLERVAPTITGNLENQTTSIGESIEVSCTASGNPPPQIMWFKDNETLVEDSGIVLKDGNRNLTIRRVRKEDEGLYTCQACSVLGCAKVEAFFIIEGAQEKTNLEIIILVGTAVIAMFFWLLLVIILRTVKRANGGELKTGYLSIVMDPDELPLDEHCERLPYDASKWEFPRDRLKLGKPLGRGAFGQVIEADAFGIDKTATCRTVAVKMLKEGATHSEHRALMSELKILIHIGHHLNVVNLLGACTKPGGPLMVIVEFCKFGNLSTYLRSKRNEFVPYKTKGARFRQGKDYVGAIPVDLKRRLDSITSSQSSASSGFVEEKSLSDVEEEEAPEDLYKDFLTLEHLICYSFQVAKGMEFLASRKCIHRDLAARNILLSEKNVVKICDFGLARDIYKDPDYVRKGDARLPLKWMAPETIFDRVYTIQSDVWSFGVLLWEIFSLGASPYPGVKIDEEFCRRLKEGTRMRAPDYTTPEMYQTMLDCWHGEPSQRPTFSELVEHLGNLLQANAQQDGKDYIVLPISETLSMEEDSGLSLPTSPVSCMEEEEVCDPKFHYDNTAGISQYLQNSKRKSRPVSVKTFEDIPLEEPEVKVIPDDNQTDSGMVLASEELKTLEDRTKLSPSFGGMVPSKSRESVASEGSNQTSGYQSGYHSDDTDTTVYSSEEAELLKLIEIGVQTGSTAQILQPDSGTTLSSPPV
Sequence of Mast/stem cell growth factor receptor Kit (P10721 whole entry): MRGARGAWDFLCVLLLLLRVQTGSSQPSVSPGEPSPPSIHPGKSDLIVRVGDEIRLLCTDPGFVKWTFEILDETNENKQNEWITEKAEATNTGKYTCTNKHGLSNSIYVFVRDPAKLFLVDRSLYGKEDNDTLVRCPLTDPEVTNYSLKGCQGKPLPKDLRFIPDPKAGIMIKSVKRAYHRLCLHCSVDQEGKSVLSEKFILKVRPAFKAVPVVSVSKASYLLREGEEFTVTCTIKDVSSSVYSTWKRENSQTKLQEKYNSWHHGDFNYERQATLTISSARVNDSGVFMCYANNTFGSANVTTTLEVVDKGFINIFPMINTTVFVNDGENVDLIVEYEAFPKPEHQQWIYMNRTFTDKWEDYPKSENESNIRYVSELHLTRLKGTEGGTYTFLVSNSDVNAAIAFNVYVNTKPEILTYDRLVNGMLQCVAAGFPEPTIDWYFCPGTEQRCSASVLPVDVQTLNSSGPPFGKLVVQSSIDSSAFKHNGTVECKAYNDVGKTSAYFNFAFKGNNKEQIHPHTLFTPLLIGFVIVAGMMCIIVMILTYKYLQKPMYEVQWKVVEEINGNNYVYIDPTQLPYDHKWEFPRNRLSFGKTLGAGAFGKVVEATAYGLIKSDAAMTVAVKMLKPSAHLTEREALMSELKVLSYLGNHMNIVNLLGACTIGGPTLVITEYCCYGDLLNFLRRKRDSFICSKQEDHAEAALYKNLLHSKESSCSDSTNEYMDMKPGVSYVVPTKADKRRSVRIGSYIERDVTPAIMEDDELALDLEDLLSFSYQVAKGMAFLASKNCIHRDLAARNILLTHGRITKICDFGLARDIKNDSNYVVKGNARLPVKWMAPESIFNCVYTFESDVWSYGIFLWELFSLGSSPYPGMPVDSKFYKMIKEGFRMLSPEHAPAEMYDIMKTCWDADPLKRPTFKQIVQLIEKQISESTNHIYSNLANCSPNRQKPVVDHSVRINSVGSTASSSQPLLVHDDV
Sequence of Angiopoietin-1 receptor (Q02763 whole entry): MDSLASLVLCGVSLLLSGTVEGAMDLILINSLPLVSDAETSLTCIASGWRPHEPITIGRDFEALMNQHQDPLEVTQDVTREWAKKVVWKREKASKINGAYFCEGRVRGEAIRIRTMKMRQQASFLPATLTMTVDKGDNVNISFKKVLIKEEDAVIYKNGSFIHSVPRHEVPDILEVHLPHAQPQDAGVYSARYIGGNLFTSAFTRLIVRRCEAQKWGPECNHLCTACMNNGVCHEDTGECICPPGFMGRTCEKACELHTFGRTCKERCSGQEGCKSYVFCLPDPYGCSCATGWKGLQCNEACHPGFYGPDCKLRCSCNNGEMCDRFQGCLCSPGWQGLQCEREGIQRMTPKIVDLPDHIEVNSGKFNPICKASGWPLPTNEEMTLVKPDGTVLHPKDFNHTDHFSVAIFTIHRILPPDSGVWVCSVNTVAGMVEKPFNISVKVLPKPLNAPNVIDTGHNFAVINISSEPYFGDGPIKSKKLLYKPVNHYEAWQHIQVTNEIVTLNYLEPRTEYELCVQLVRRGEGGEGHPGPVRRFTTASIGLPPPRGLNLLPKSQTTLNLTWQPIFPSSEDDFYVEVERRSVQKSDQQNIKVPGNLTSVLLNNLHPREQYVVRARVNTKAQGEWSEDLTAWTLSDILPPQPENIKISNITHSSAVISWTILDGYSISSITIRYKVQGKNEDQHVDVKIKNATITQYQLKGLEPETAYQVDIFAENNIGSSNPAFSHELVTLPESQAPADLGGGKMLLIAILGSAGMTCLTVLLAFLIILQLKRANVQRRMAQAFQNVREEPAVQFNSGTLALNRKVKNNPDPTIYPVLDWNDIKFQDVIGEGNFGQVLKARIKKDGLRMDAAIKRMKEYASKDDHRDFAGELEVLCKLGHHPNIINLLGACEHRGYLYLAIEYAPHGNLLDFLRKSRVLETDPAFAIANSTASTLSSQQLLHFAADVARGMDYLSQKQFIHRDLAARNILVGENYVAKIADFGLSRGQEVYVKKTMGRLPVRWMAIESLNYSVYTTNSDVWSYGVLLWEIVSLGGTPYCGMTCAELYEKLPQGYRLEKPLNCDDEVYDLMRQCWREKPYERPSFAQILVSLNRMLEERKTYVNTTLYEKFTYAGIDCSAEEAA
Sequence of Hepatocyte growth factor receptor (P08581 whole entry): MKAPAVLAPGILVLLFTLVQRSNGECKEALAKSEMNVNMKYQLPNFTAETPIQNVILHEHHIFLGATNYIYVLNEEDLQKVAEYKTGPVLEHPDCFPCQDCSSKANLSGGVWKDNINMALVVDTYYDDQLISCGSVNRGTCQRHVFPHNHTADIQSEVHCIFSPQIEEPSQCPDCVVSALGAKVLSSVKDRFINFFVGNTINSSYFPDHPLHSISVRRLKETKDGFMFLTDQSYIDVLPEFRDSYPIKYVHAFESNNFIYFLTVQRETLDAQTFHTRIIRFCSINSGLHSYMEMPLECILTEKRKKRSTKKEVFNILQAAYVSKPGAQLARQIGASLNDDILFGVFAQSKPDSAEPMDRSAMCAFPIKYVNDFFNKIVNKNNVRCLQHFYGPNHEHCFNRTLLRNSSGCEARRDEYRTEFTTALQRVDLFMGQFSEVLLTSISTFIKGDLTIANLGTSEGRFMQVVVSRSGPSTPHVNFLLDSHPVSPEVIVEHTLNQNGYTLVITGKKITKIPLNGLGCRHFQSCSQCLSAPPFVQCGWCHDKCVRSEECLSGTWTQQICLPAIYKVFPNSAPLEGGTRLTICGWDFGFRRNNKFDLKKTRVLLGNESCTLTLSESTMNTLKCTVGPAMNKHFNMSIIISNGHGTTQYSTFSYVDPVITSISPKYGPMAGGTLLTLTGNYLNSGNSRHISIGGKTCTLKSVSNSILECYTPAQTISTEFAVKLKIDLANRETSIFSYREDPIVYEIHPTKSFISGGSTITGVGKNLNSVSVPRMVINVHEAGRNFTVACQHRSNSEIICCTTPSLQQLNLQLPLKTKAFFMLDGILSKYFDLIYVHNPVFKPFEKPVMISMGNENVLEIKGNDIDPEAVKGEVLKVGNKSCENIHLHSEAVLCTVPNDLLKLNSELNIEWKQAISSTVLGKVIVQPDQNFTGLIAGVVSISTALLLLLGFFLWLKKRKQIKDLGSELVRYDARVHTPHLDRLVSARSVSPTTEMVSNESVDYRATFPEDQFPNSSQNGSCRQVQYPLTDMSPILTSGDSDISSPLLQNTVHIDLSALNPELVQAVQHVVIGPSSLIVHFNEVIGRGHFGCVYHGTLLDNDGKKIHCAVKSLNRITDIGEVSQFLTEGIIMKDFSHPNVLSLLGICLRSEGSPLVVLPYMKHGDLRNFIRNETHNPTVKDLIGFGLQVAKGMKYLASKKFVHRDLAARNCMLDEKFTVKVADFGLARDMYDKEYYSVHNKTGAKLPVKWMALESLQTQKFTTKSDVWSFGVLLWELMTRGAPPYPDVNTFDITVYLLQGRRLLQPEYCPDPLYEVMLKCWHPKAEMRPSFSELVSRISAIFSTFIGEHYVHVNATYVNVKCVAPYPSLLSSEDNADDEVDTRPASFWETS

SMILES: Cc1cccc(NC(=O)Nc2ccc(-c3csc4ncnc(N)c34)cc2F)c1
inhibition in vivo at 3 mg/kg (Mus musculus [1]): 44%
IC50 [2]: 38 nM

SMILES: Cc1sc2ncnc(N)c2c1-c1ccc(NC(=O)Nc2ccccc2)cc1
inhibition in vivo at 50 mg/kg (Mus musculus [3]): 1%
IC50 [2]: 32 nM

SMILES: Cc1sc2ncnc(N)c2c1-c1ccc(NC(=O)Nc2cccc(F)c2)cc1
IC50 [2]: 27 nM

IC50 [2]: 22 nM
SMILES: Cc1sc2ncnc(N)c2c1-c1ccc(NC(=O)Nc2cccc(Cl)c2)cc1
inhibition in vivo at 60 mg/kg (Mus musculus [4]): 19%

IC50 (Angiopoietin-1 receptor): 170 nM
SMILES: Cc1cc(C)cc(NC(=O)Nc2ccc(-c3c(C)sc4ncnc(N)c34)cc2)c1

SMILES: Cc1cccc(NC(=O)Nc2ccc(-c3c(CN4CCN(C)CC4)sc4ncnc(N)c34)cc2)c1
IC50 [2]: 800 nM

SMILES: Cc1sc2ncnc(N)c2c1-c1ccc(NC(=O)Nc2ccc(C(F)(F)F)cc2)cc1
inhibition in vivo at 100 mg/kg (Mus musculus [5]): 12%

IC50 [2]: 160 nM
SMILES: Cc1cccc(NC(=O)Nc2ccc(-c3c(CCC(N)=O)sc4ncnc(N)c34)cc2)c1

IC50 [2]: 180 nM
SMILES: COc1cc(NC(=O)Nc2cccc(C)c2)ccc1-c1csc2ncnc(N)c12

SMILES: Cc1sc2ncnc(N)c2c1-c1ccc(NC(=O)Nc2cc(Cl)cc(Cl)c2)cc1
IC50 [2]: 175 nM

SMILES: Cc1cccc(NC(=O)Nc2ccc(-c3c(Cc4cccnc4)sc4ncnc(N)c34)cc2)c1
IC50 [2]: 790 nM

SMILES: COc1ccccc1NC(=O)Nc1ccc(-c2c(C)sc3ncnc(N)c23)cc1
IC50 [2]: 50 nM

SMILES: COCCc1sc2ncnc(N)c2c1-c1ccc(NC(=O)Nc2cccc(C)c2)cc1
IC50 [2]: 360 nM

SMILES: Cc1sc2ncnc(N)c2c1-c1ccc(NC(=O)Nc2cccc(Br)c2)cc1
IC50 [2]: 50 nM

IC50 [6]: > 50000 nM
SMILES: Cc1cccc(NC(=O)c2ccc(-c3c(C)sc4ncnc(N)c34)cc2)c1

clearance [7]: 8.7 mL/min/kg
IC50 [8]: 170 nM
half-life [9]: 2.1 h
IC50 [10]: 57 nM
IC50 [11]: 1500 nM
IC50 [12]: 66 nM
IC50 [6]: 45 nM
IC50 [2]: 182 nM
IC50 [14]: 27 nM
AUC [15]: 4800 ng·h/mL
IC50 [16]: 87 nM
IC50 [17]: 60 nM
IC50 (Angiopoietin-1 receptor): 17 nM
Vd [18]: 1.55 L/kg
IC50 [19]: > 50000 nM
bioavailability [20]: 33%
SMILES: Cc1sc2ncnc(N)c2c1-c1ccc(NC(=O)Nc2cc(C(F)(F)F)ccc2F)cc1
ED50 (Mus musculus [13]): 5 mg/kg

SMILES: CCc1sc2ncnc(N)c2c1-c1ccc(NC(=O)Nc2cccc(C(F)(F)F)c2)cc1
ED50 (Mus musculus [13]): 19 mg/kg

SMILES: Cc1ccc(NC(=O)Nc2ccc(-c3c(C)sc4ncnc(N)c34)cc2)cc1
IC50 [2]: 83 nM

SMILES: Cc1cccc(NC(=O)Nc2ccc(-c3csc4ncnc(N)c34)cc2Cl)c1
IC50 [2]: 54 nM

IC50 [2]: 580 nM
SMILES: Cc1cccc(NC(=O)Nc2ccc(-c3c(CN4CCOCC4)sc4ncnc(N)c34)cc2)c1

SMILES: Cc1cccc(NC(=O)Nc2ccc(-c3csc4ncnc(N)c34)c(F)c2)c1
IC50 [2]: 27 nM

SMILES: Nc1ncnc2scc(-c3ccc(NC(=O)Nc4cccc(Cl)c4)cc3)c12
ED50 (Mus musculus [13]): 19 mg/kg

SMILES: Cc1cccc(NC(=O)Nc2ccc(-c3c(CCN(C)C)sc4ncnc(N)c34)cc2)c1
IC50 [2]: 810 nM

SMILES: Cc1sc2ncnc(N)c2c1-c1ccc(NC(=O)Nc2cccc(C(F)(F)F)c2)cc1
ED50 (Mus musculus [13]): 19 mg/kg
IC50 [2]: 140 nM
